Measured values from patent US20230242582A1, “NOVEL ALPHA-HELICAL DOUBLE-SIDED CELL PENETRATING PEPTIDE AND USE THEREOF” (CAMP THERAPEUTICS INC., priority 2020, published 2023).
Positions of bridges follow the written chain, without caps; N, C: chain ends. Non-standard residues stand in square brackets, D forms with d. Residues, ends and D or L forms follow the SMILES beside them. Chains are numbered I, II in the order given. tBuAla = CC(C)(C)C[C@H](N)C(=O)O

System: HeLa cells
Experiment: Cytotoxicity of dimeric peptides, WST-1 assay
Assay type: cell-based, human
Settings: for ratio: IC50 relative to LK-3, HeLa cells
Description: Cytotoxicity was identified using WST-1 assay by treating HeLa cells with peptides in a 96-well plate (1×10^4 cells/well) for 24 hours.
Specifically, HeLa cells were cultured in DMEM at a condition of 37° C. with 5% CO2. The cells were respectively cultured in a cell culture plate, and then removed with trypsin. The cells were seeded at 1×10^4 cells per well in a 96-well plate. After 24 hours, the peptide was added to the media, and culture was performed again at a condition of 37° C. with 5% CO2 for 24 hours. 10 uL of WST-1 reagent was added per well, and reaction was allowed to proceed for 30 minutes at a condition of 37° C. with 5% CO2. Then, UV absorbance was measured at 450/700 nm with a 96-well plate reader.

With `CC(=O)N[C@@H](CC(C)(C)C)C(=O)N[C@H]1CSSC[C@@H](C(=O)N[C@@H](CCCCN)C(N)=O)NC(=O)[C@H](CC(C)(C)C)NC(=O)[C@H](CCCCN)NC(=O)[C@H](CCCCN)NC(=O)[C@H](CC(C)(C)C)NC(=O)[C@H](CC(C)(C)C)NC(=O)[C@H](CCCCN)NC(=O)[C@@H](NC(=O)[C@H](CC(C)(C)C)NC(C)=O)CSSC[C@@H](C(=O)N[C@@H](CCCCN)C(N)=O)NC(=O)[C@H](CC(C)(C)C)NC(=O)[C@H](CCCCN)NC(=O)[C@H](CCCCN)NC(=O)[C@H](CC(C)(C)C)NC(=O)[C@H](CC(C)(C)C)NC(=O)[C@H](CCCCN)NC1=O` [diL*K10] (I: Ac-[tBuAla]CK[tBuAla][tBuAla]KK[tBuAla]CK-NH2 / II: Ac-[tBuAla]CK[tBuAla][tBuAla]KK[tBuAla]CK-NH2; disulfide I:2-II:9, I:9-II:2 (inferred)) the ratio was 2.32.
In the case of `CC(=O)N[C@@H](Cc1ccccc1)C(=O)N[C@H]1CSSC[C@@H](C(=O)N[C@@H](CCCCN)C(N)=O)NC(=O)[C@H](Cc2ccccc2)NC(=O)[C@H](CCCCN)NC(=O)[C@H](CCCCN)NC(=O)[C@H](Cc2ccccc2)NC(=O)[C@H](Cc2ccccc2)NC(=O)[C@H](CCCCN)NC(=O)[C@@H](NC(=O)[C@H](Cc2ccccc2)NC(C)=O)CSSC[C@@H](C(=O)N[C@@H](CCCCN)C(N)=O)NC(=O)[C@H](Cc2ccccc2)NC(=O)[C@H](CCCCN)NC(=O)[C@H](CCCCN)NC(=O)[C@H](Cc2ccccc2)NC(=O)[C@H](Cc2ccccc2)NC(=O)[C@H](CCCCN)NC1=O` [diFK10] (HELM PEPTIDE1{[ac].F.C.K.F.F.K.K.F.C.K.[am]}|PEPTIDE2{[ac].F.C.K.F.F.K.K.F.C.K.[am]}$PEPTIDE1,PEPTIDE2,3:R3-10:R3|PEPTIDE1,PEPTIDE2,10:R3-3:R3$$$V2.0; bridges inferred), the ratio is reported as 2.11.
With “diLH10: dimer of monomer LH10, AC-LCHLLHHLCH-NH2 (SEQ ID NO 14) (Ac-LCHLLHHLCH-NH2; also: dimer of two monomers linked by interchain disulfide bonds)” the toxicity (even at 40 μM, data not shown) was “no toxicity was observed”.
For `CC[C@H](C)[C@H](NC(C)=O)C(=O)N[C@H]1CSSC[C@@H](C(=O)N[C@@H](CCCCN)C(N)=O)NC(=O)[C@H]([C@@H](C)CC)NC(=O)[C@H](CCCCN)NC(=O)[C@H](CCCCN)NC(=O)[C@H]([C@@H](C)CC)NC(=O)[C@H]([C@@H](C)CC)NC(=O)[C@H](CCCCN)NC(=O)[C@@H](NC(=O)[C@@H](NC(C)=O)[C@@H](C)CC)CSSC[C@@H](C(=O)N[C@@H](CCCCN)C(N)=O)NC(=O)[C@H]([C@@H](C)CC)NC(=O)[C@H](CCCCN)NC(=O)[C@H](CCCCN)NC(=O)[C@H]([C@@H](C)CC)NC(=O)[C@H]([C@@H](C)CC)NC(=O)[C@H](CCCCN)NC1=O` [diIK10] (HELM PEPTIDE1{[ac].I.C.K.I.I.K.K.I.C.K.[am]}|PEPTIDE2{[ac].I.C.K.I.I.K.K.I.C.K.[am]}$PEPTIDE1,PEPTIDE2,3:R3-10:R3|PEPTIDE1,PEPTIDE2,10:R3-3:R3$$$V2.0; bridges inferred), the ratio was 2.57.
Work on `CC(=O)N[C@@H](CC(C)(C)C)C(=O)N[C@H]1CSSC[C@@H](C(=O)N[C@@H](CCCNC(=N)N)C(N)=O)NC(=O)[C@H](CC(C)(C)C)NC(=O)[C@H](CCCNC(=N)N)NC(=O)[C@H](CCCNC(=N)N)NC(=O)[C@H](CC(C)(C)C)NC(=O)[C@H](CC(C)(C)C)NC(=O)[C@H](CCCNC(=N)N)NC(=O)[C@@H](NC(=O)[C@H](CC(C)(C)C)NC(C)=O)CSSC[C@@H](C(=O)N[C@@H](CCCNC(=N)N)C(N)=O)NC(=O)[C@H](CC(C)(C)C)NC(=O)[C@H](CCCNC(=N)N)NC(=O)[C@H](CCCNC(=N)N)NC(=O)[C@H](CC(C)(C)C)NC(=O)[C@H](CC(C)(C)C)NC(=O)[C@H](CCCNC(=N)N)NC1=O` [diL*R10] (I: Ac-[tBuAla]CR[tBuAla][tBuAla]RR[tBuAla]CR-NH2 / II: Ac-[tBuAla]CR[tBuAla][tBuAla]RR[tBuAla]CR-NH2; disulfide I:2-II:9, I:9-II:2 (inferred)) yielded a ratio of 3.11.
